# Test results reported in the supplement of paper PMC8671470.
# ± gives the standard deviation of the averaged measurements.
# Tested on: HL-60
# Test: cell viability (% survival relative to DMSO control); higher = less cytotoxic
# Details: 0.001 µM; 72 h; co-treatment: GSK2194069 100 nM
# Summary of the method: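 Area under the curve, where listed, was derived from four-parameter log-logistic fits with drc and PharmacoGx. These fits used CellTiter-Glo viability from HL-60 cells in RPMI 1640 with 10% FBS, normalised to DMSO wells and wells holding 10 μM proteasome inhibitor. The full library was rescreened on 384-well plates in duplicate at five tenfold concentrations, 1–10,000 nM, with DMSO or 100 nM of one of three metabolic inhibitors, for 72 h at 37 °C, 5% CO2.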
row,SMILES,cell viability [%]
1,CCN(CC)C(=S)SSC(=S)N(CC)CC [Disulfiram],100 ± 2.3
2,c1cc(-c2cnn3cc(-c4ccc(OCCN5CCCCC5)cc4)cnc23)ccn1 [Dorsomorphin],108 ± 14
3,C[C@H]1c2cccc(O)c2C(=O)C2C(=O)[C@]3(O)C(=O)C(C(N)=O)C(=O)[C@@H](N(C)C)[C@@H]3[C@@H](O)[C@@H]21 (stereo not given in full) [Doxycycline],93.3 ± 7.2

# Same assay, conditions: 0.001 µM; 72 h; co-treatment: pictilisib 100 nM
row,SMILES,cell viability [%]
1,Cc1c(Cl)cccc1S(=O)(=O)Nc1nc(CC(=O)N2CCN(C)CC2)cs1 [BVT-2733],96.1 ± 7.3
2,CCc1oc2ccccc2c1C(=O)c1cc(Br)c(O)c(Br)c1 [Benzbromarone],93.8 ± 3.1
3,CCOC(=O)c1sc(NC(=O)c2ccco2)c(SC#N)c1C [CBR-5884],107 ± 3.1
4,O=C(/C=C/c1ccc(O)c(O)c1)OCCc1ccccc1 [Caffeic acid phenethyl ester],101 ± 3.8
5,CCCCCOC(=O)Nc1nc(=O)n([C@@H]2O[C@H](C)[C@@H](O)[C@H]2O)cc1F [Capecitabine],104 ± 3.5
6,Cc1ccc(-c2cc(C(F)(F)F)nn2-c2ccc(S(N)(=O)=O)cc2)cc1 [Celecoxib],102 ± 3.9
7,O=c1c(-c2ccc(O)cc2)coc2cc(O[C@@H]3O[C@H](CO)[C@@H](O)[C@H](O)[C@H]3O)ccc12 [Daidzin],94 ± 11
8,CCN(CC)C(=S)SSC(=S)N(CC)CC [Disulfiram],105.2 ± 0.96
9,c1cc(-c2cnn3cc(-c4ccc(OCCN5CCCCC5)cc4)cnc23)ccn1 [Dorsomorphin],93.5 ± 8.3
10,C[C@H]1c2cccc(O)c2C(=O)C2C(=O)[C@]3(O)C(=O)C(C(N)=O)C(=O)[C@@H](N(C)C)[C@@H]3[C@@H](O)[C@@H]21 (stereo not given in full) [Doxycycline],91.7 ± 6.2

# Same assay, conditions: 0.01 µM; 72 h; co-treatment: AZD3965 100 nM
row,SMILES,cell viability [%]
1,Cc1c(Cl)cccc1S(=O)(=O)Nc1nc(CC(=O)N2CCN(C)CC2)cs1 [BVT-2733],102 ± 3.8
2,CCc1oc2ccccc2c1C(=O)c1cc(Br)c(O)c(Br)c1 [Benzbromarone],99.3 ± 1.6
3,CCOC(=O)c1sc(NC(=O)c2ccco2)c(SC#N)c1C [CBR-5884],103 ± 1.6
4,O=C(/C=C/c1ccc(O)c(O)c1)OCCc1ccccc1 [Caffeic acid phenethyl ester],99.96 ± 0.96
5,CCCCCOC(=O)Nc1nc(=O)n([C@@H]2O[C@H](C)[C@@H](O)[C@H]2O)cc1F [Capecitabine],95.72 ± 0.16
6,Cc1ccc(-c2cc(C(F)(F)F)nn2-c2ccc(S(N)(=O)=O)cc2)cc1 [Celecoxib],99.7 ± 2.2
7,O=c1c(-c2ccc(O)cc2)coc2cc(O[C@@H]3O[C@H](CO)[C@@H](O)[C@H](O)[C@H]3O)ccc12 [Daidzin],104 ± 6.6
8,CCN(CC)C(=S)SSC(=S)N(CC)CC [Disulfiram],101 ± 6
9,c1cc(-c2cnn3cc(-c4ccc(OCCN5CCCCC5)cc4)cnc23)ccn1 [Dorsomorphin],101 ± 4.7
10,C[C@H]1c2cccc(O)c2C(=O)C2C(=O)[C@]3(O)C(=O)C(C(N)=O)C(=O)[C@@H](N(C)C)[C@@H]3[C@@H](O)[C@@H]21 (stereo not given in full) [Doxycycline],97.9 ± 4.6

# Same assay, conditions: 0.01 µM; 72 h; co-treatment: DMSO vehicle
row,SMILES,cell viability [%]
1,Cc1c(Cl)cccc1S(=O)(=O)Nc1nc(CC(=O)N2CCN(C)CC2)cs1 [BVT-2733],103.3 ± 0.6
2,CCc1oc2ccccc2c1C(=O)c1cc(Br)c(O)c(Br)c1 [Benzbromarone],99 ± 2.1
3,CCOC(=O)c1sc(NC(=O)c2ccco2)c(SC#N)c1C [CBR-5884],102 ± 2.5
4,O=C(/C=C/c1ccc(O)c(O)c1)OCCc1ccccc1 [Caffeic acid phenethyl ester],95.8 ± 5.6
5,CCCCCOC(=O)Nc1nc(=O)n([C@@H]2O[C@H](C)[C@@H](O)[C@H]2O)cc1F [Capecitabine],100.39 ± 0.085
6,Cc1ccc(-c2cc(C(F)(F)F)nn2-c2ccc(S(N)(=O)=O)cc2)cc1 [Celecoxib],90.4 ± 19
7,O=c1c(-c2ccc(O)cc2)coc2cc(O[C@@H]3O[C@H](CO)[C@@H](O)[C@H](O)[C@H]3O)ccc12 [Daidzin],102 ± 5.1
8,CCN(CC)C(=S)SSC(=S)N(CC)CC [Disulfiram],100.4 ± 0.73
9,c1cc(-c2cnn3cc(-c4ccc(OCCN5CCCCC5)cc4)cnc23)ccn1 [Dorsomorphin],102 ± 3.1
10,C[C@H]1c2cccc(O)c2C(=O)C2C(=O)[C@]3(O)C(=O)C(C(N)=O)C(=O)[C@@H](N(C)C)[C@@H]3[C@@H](O)[C@@H]21 (stereo not given in full) [Doxycycline],101 ± 4.3

# Same assay, conditions: 0.01 µM; 72 h; co-treatment: GSK2194069 100 nM
row,SMILES,cell viability [%]
1,Cc1c(Cl)cccc1S(=O)(=O)Nc1nc(CC(=O)N2CCN(C)CC2)cs1 [BVT-2733],105 ± 6.3
2,CCc1oc2ccccc2c1C(=O)c1cc(Br)c(O)c(Br)c1 [Benzbromarone],104 ± 4.5
3,CCOC(=O)c1sc(NC(=O)c2ccco2)c(SC#N)c1C [CBR-5884],98.31 ± 0.17
4,O=C(/C=C/c1ccc(O)c(O)c1)OCCc1ccccc1 [Caffeic acid phenethyl ester],100.7 ± 0.46
5,CCCCCOC(=O)Nc1nc(=O)n([C@@H]2O[C@H](C)[C@@H](O)[C@H]2O)cc1F [Capecitabine],95.88 ± 0.56
6,Cc1ccc(-c2cc(C(F)(F)F)nn2-c2ccc(S(N)(=O)=O)cc2)cc1 [Celecoxib],87.7 ± 19
7,O=c1c(-c2ccc(O)cc2)coc2cc(O[C@@H]3O[C@H](CO)[C@@H](O)[C@H](O)[C@H]3O)ccc12 [Daidzin],105 ± 2.1
8,CCN(CC)C(=S)SSC(=S)N(CC)CC [Disulfiram],95.7 ± 15
9,c1cc(-c2cnn3cc(-c4ccc(OCCN5CCCCC5)cc4)cnc23)ccn1 [Dorsomorphin],102 ± 2.1
10,C[C@H]1c2cccc(O)c2C(=O)C2C(=O)[C@]3(O)C(=O)C(C(N)=O)C(=O)[C@@H](N(C)C)[C@@H]3[C@@H](O)[C@@H]21 (stereo not given in full) [Doxycycline],96 ± 4.9

# Same assay, conditions: 0.01 µM; 72 h; co-treatment: pictilisib 100 nM
row,SMILES,cell viability [%]
1,Cc1c(Cl)cccc1S(=O)(=O)Nc1nc(CC(=O)N2CCN(C)CC2)cs1 [BVT-2733],99.8 ± 8.6
2,CCc1oc2ccccc2c1C(=O)c1cc(Br)c(O)c(Br)c1 [Benzbromarone],99.8 ± 1
3,CCOC(=O)c1sc(NC(=O)c2ccco2)c(SC#N)c1C [CBR-5884],101 ± 3.1
4,O=C(/C=C/c1ccc(O)c(O)c1)OCCc1ccccc1 [Caffeic acid phenethyl ester],102 ± 3.9
5,CCCCCOC(=O)Nc1nc(=O)n([C@@H]2O[C@H](C)[C@@H](O)[C@H]2O)cc1F [Capecitabine],96.7 ± 12
6,Cc1ccc(-c2cc(C(F)(F)F)nn2-c2ccc(S(N)(=O)=O)cc2)cc1 [Celecoxib],98.6 ± 12
7,O=c1c(-c2ccc(O)cc2)coc2cc(O[C@@H]3O[C@H](CO)[C@@H](O)[C@H](O)[C@H]3O)ccc12 [Daidzin],103 ± 11
8,CCN(CC)C(=S)SSC(=S)N(CC)CC [Disulfiram],86.4 ± 37
9,c1cc(-c2cnn3cc(-c4ccc(OCCN5CCCCC5)cc4)cnc23)ccn1 [Dorsomorphin],99.7 ± 4.2
10,C[C@H]1c2cccc(O)c2C(=O)C2C(=O)[C@]3(O)C(=O)C(C(N)=O)C(=O)[C@@H](N(C)C)[C@@H]3[C@@H](O)[C@@H]21 (stereo not given in full) [Doxycycline],98.48 ± 0.73

# Same assay, conditions: 0.1 µM; 72 h; co-treatment: AZD3965 100 nM
row,SMILES,cell viability [%]
1,Cc1c(Cl)cccc1S(=O)(=O)Nc1nc(CC(=O)N2CCN(C)CC2)cs1 [BVT-2733],97.2 ± 1.6
2,CCc1oc2ccccc2c1C(=O)c1cc(Br)c(O)c(Br)c1 [Benzbromarone],98.9 ± 1.8
3,CCOC(=O)c1sc(NC(=O)c2ccco2)c(SC#N)c1C [CBR-5884],93.2 ± 23
4,O=C(/C=C/c1ccc(O)c(O)c1)OCCc1ccccc1 [Caffeic acid phenethyl ester],104 ± 2.9
5,CCCCCOC(=O)Nc1nc(=O)n([C@@H]2O[C@H](C)[C@@H](O)[C@H]2O)cc1F [Capecitabine],109 ± 4.4
6,Cc1ccc(-c2cc(C(F)(F)F)nn2-c2ccc(S(N)(=O)=O)cc2)cc1 [Celecoxib],101 ± 2.7
7,O=c1c(-c2ccc(O)cc2)coc2cc(O[C@@H]3O[C@H](CO)[C@@H](O)[C@H](O)[C@H]3O)ccc12 [Daidzin],102 ± 9.7
